{"source": "patent US20230069804A1", "about": "“METHODS AND COMPOSITIONS FOR MODULATING SPLICING” (SkyHawk Therapeutics, Inc., priority 2019, published 2023)", "key": {"[1]": {"test_system": "MDR1-MDCK cell monolayers", "assay": "MDCK-MDR1 permeability assay (BBB penetration potential)", "type": "in vitro ADME", "details": "5 μM, 120 minutes; for MDCK-MDR1: % Recov A-B / MDCK-MDR1: % Recov B-A: pH 7.4; for MDCK MDRP1 Efflux Ratio: Papp (B-to-A)/Papp (A-to-B), separated enantiomers, told apart by chiral retention time", "method": "(§1) Each determination is performed in duplicate. […] Analytical conditions are outlined below.\n(§2) Papp=(dCr/dt)×Vr/(A×CA) (1)"}, "[2]": {"test_system": "MDR1", "assay": "MDCK-MDR1 permeability assay (BBB penetration potential)", "type": "in vitro ADME", "details": "dog; for Papp A→B at 120 min, 5 μM / Papp B→A at 120 min, 5 μM: MDCK-MDR1, pH 7.4", "method": "as §1, §2"}, "[3]": {"details": "MDCK-MDR1, pH 7.4, Papp (B-to-A)/Papp (A-to-B), read-out: MDCK-MDR1: Efflux"}, "[4]": {"details": "MDCK-MDR1, pH 7.4, Papp (B-to-A)/Papp (A-to-B), 5 μM, 120 minutes, separated enantiomers, told apart by chiral retention time, read-out: MDCK MDRP1 Efflux Ratio"}}, "note": "Values joined by “and” are separate entries in the source; they are usually repeats but may differ in a detail not shown here. Identical values can stand only once. Like-named read-outs stand apart in the source and are kept apart here."}
{"smiles": "CN(c1nnc(-c2cc(F)c(-c3cn[nH]c3)cc2O)s1)[C@H]1C[C@@H]2CC[C@H]([C@H]1F)N2C", "note": "(single isomer, unassigned) [Compound E-24A]", "values": [{"measurement": "MDCK-MDR1: % Recov A-B", "setting": "[1]", "value": 57, "unit": "%"}, {"measurement": "MDCK-MDR1: % Recov B-A", "setting": "[1]", "value": 74, "unit": "%"}, {"measurement": "efflux ratio at 120 min, 5 μM", "setting": "[2]; [3]", "value": 6}, {"measurement": "Papp A→B at 120 min, 5 μM", "setting": "[2]; 5 μM, 120 minutes", "value": 5.07, "unit": "×10⁻⁶ cm/s"}, {"measurement": "Papp B→A at 120 min, 5 μM", "setting": "[2]; 5 μM, 120 minutes", "value": 30.8, "unit": "×10⁻⁶ cm/s"}]}
{"smiles": "CN(c1nnc(-c2ccc(-c3cnn(C)c3)cc2O)s1)[C@H]1C[C@@H]2CC[C@@H](N2)[C@H]1F", "note": "(racemic) [3A/3B, 2-(5-(((1R,2R,3S,5S)-2-fluoro-8-azabicyclo[3.2.1]octan-3-yl)(methyl)amino)-1,3,4-thiadiazol-2-yl)-5-(1-methyl-1H-pyrazol-4-yl)phenol]", "values": [{"measurement": "MDCK MDRP1 Efflux Ratio", "setting": "[1]", "value": 5.3}, {"measurement": "efflux ratio at 120 min, 5 μM", "setting": "[2]; [4]", "value": 4.3}]}
{"smiles": "CN(c1nnc(-c2ccc(-c3cc(=O)n(C)cn3)cc2O)s1)[C@@H]1C[C@H]2CC[C@H](N2)[C@@H]1F", "note": "(single isomer, unassigned) [Compound E-8A]", "values": [{"measurement": "MDCK-MDR1: % Recov A-B", "setting": "[1]", "value": 116, "unit": "%"}, {"measurement": "MDCK-MDR1: % Recov B-A", "setting": "[1]", "value": 114, "unit": "%"}, {"measurement": "efflux ratio at 120 min, 5 μM", "setting": "[2]; [3]", "value": 21}, {"measurement": "Papp A→B at 120 min, 5 μM", "setting": "[2]; 5 μM, 120 minutes", "value": 1.31, "unit": "×10⁻⁶ cm/s"}, {"measurement": "Papp B→A at 120 min, 5 μM", "setting": "[2]; 5 μM, 120 minutes", "value": 27.8, "unit": "×10⁻⁶ cm/s"}]}
{"smiles": "COc1cc(-c2ccc(-c3nnc(N(C)[C@@H]4C[C@H]5CC[C@H](N5)[C@@H]4F)s3)c(O)c2)ncn1", "note": "(racemic) [5A/5B, 2-(5-{[(1S,2S,3R)-2-fluoro-8-azabicyclo[3.2.1]octan-3-yl](methyl)amino}-1,3,4-thiadiazol-2-yl)-5-(6-methoxypyrimidin-4-yl)phenol and 2-(5-{[(2R,3S,5S)-2-fluoro-8-azabicyclo[3.2.1]octan-3-yl](methyl)amino}-1,3,4-thiadiazol-2-yl)-5-(6-methoxypyrimidin-4-yl)phenol]", "values": [{"measurement": "efflux ratio at 120 min, 5 μM", "setting": "[2]; [4]", "value": 2}]}
{"smiles": "COc1cc(-c2ccc(-c3nnc(N(C4CC4)[C@@H]4C[C@H]5CC[C@H](N5)[C@@H]4F)s3)c(O)c2)cc(F)n1", "note": "(racemic) [2A/2B, 2-(5-(cyclopropyl((1S,2S,3R,5R)-2-fluoro-8-azabicyclo[3.2.1]octan-3-yl)amino)-1,3,4-thiadiazol-2-yl)-5-(2-fluoro-6-methoxypyridin-4-yl)phenol and 2-(5-(cyclopropyl((1R,2R,3S,5S)-2-fluoro-8-azabicyclo[3.2.1]octan-3-yl)amino)-1,3,4-thiadiazol-2-yl)-5-(2-fluoro-6-methoxypyridin-4-yl)phenol]", "values": [{"measurement": "efflux ratio at 120 min, 5 μM", "setting": "[2]; [4]", "value": 5}]}
{"smiles": "CN(c1nnc(-c2ccc(-c3cnn(C)c3)cc2O)s1)[C@H]1C[C@@H]2CC[C@H]([C@H]1F)N2C", "note": "(racemic) [25A/25B, 2-(5-{[(1S,2S,3R,5R)-2-fluoro-8-methyl-8-azabicyclo[3.2.1]octan-3-yl](methyl)amino}-1,3,4-thiadiazol-2-yl)-5-(1-methyl-1H-pyrazol-4-yl)phenol and 2-(5-{[(1R,2R,3S,5S)-2-fluoro-8-methyl-8-azabicyclo[3.2.1]octan-3-yl](methyl)amino}-1,3,4-thiadiazol-2-yl)-5-(1-methyl-1H-pyrazol-4-yl)phenol]", "values": [{"measurement": "MDCK MDRP1 Efflux Ratio", "setting": "[1]", "value": "3 and 4"}]}
{"smiles": "CN(c1nnc(-c2ccc(-c3cn[nH]c3)cc2O)s1)[C@H]1C[C@@H]2CC[C@@H](N2)[C@H]1F", "note": "(racemic) [7A/7B, 2-(5-{[(1S,2S,3R,5R)-2-fluoro-8-azabicyclo[3.2.1]octan-3-yl](methyl)amino}-1,3,4-thiadiazol-2-yl)-5-(1H-pyrazol-4-yl)phenol and 2-(5-{[(1R,2R,3S,5S)-2-fluoro-8-azabicyclo[3.2.1]octan-3-yl](methyl)amino}-1,3,4-thiadiazol-2-yl)-5-(1H-pyrazol-4-yl)phenol]", "values": [{"measurement": "efflux ratio at 120 min, 5 μM", "setting": "[2]; [4]", "value": 12}]}
{"smiles": "COc1cc(-c2ccc(-c3nnc(N(C)[C@@H]4C[C@H]5CC[C@H](N5)[C@@H]4F)s3)c(O)c2)ccn1", "note": "(racemic) [11A/11B, 2-(5-{[(1S,2S,3R)-2-fluoro-8-azabicyclo[3.2.1]octan-3-yl](methyl)amino}-1,3,4-thiadiazol-2-yl)-5-(2-methoxypyridin-4-yl)phenol and 2-(5-{[(2R,3S,5S)-2-fluoro-8-azabicyclo[3.2.1]octan-3-yl](methyl)amino}-1,3,4-thiadiazol-2-yl)-5-(2-methoxypyridin-4-yl)phenol]", "values": [{"measurement": "efflux ratio at 120 min, 5 μM", "setting": "[2]; [4]", "value": 2}]}
